Assay [1] relates to angiotensin II-induced pressor responses. Nature of the assay: Test C: antagonism of angiotensin II-induced pressor responses in terminally-anaesthetised or conscious rats. In kind it is in vivo. The note with it: Rattus norvegicus. The protocol: This in vivo test involves using terminally-anaesthetised or conscious rats in which an arterial catheter has been implanted under anaesthesia for the measurement of changes in blood pressure. The All antagonistic effects of the test compound following oral or parenteral administration, are assessed against angiotensin II-induced pressor responses. To ensure that the effect is specific the effect of the test compound on vasopressin-induced pressor responses may also be determined in the same preparation.

Assay [2] deals with T1, All (angiotensin II) receptors (Cavia porcellus, UniProt Q9WV26).
T1 construct: from tissue; host or cells: guinea pig adrenal gland, cell surface membrane fraction
T1 sequence (Q9WV26 1-359): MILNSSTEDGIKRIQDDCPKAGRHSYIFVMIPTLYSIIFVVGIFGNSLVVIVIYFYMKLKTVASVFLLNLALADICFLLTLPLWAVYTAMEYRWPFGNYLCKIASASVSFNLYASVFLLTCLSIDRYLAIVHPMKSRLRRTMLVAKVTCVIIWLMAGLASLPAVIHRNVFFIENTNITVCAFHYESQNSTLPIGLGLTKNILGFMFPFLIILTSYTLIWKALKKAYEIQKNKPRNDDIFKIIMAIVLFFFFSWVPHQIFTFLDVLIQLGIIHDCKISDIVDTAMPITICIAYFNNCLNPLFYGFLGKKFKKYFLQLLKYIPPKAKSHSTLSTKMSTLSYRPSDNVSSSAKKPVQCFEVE
Description: Test A: displacement of radiolabelled All binding from guinea pig adrenal gland membrane fraction. The note with it: guinea pig adrenal gland membranes; read-out: IC50 (concentration for 50% displacement of radiolabelled All binding). The protocol: This in vitro procedure involves the incubation of the test compound initially at a concentration of 100 micromolar (or less) in a buffered mixture containing fixed concentrations of radiolabelled All and a cell surface membrane fraction prepared from a suitable angiotensin target tissue. In this test, the source of cell surface membranes is the guinea pig adrenal gland which is well known to respond to All. Interaction of the radiolabelled All with its receptors (assessed as radiolabel bound to the particulate membrane fraction following removal of unbound radiolabel by a rapid filtration procedure such as is standard in such studies) is antagonized by compounds which also bind to the membrane receptor sites and the degree of antagonism (observed in the test as displacement of membrane-bound radioactivity) is determined readily by comparing the receptor-bound radioactivity in the presence of the test compound at the specified test concentration with a control value determined in the absence of the test compound. Using this procedure compounds showing at least 50% displacement of radiolabelled All binding at a concentration of 10^-4 M are retested at lower concentrations to determine their potency. […]

The subject of assay [3] is All-induced contractions of isolated rabbit aorta. Nature of the assay: Test B: antagonism of All-induced contractions of isolated rabbit aorta. Conditions: 37°C. In kind it is cell-based. The protocol:
This in vitro test involves the measurement of the antagonistic effects of the test compound against All-induced contractions of isolated rabbit aorta, maintained in a physiological salt solution at 37°C. In order to ensure that the effect of the compound is specific to antagonism of All, the effect of the test compound on noradrenaline-induced contractions may also be determined in the same preparation.

A word on the inhibition: it is how much of the control response was suppressed. A low value points to little suppression. One may read the ED50 as the midpoint of the dose-response relation. As a reminder, the pA2 is the negative logarithm of the molar antagonist concentration that doubles the agonist concentration needed for the same response.

On to `CCCCc1nc2cccnc2n1Cc1ccc(-c2ccccc2-c2nnn[nH]2)cc1.Cl` [Example 3, 2-butyl-3-[(2'-(1H-tetrazol-5-yl)biphenyl-4-yl)methyl]-3H-imidazo[4,5-b]pyridine hydrochloride], for which the inhibition at 20 mg/kg in assay [1] (1 h, after one hour at a dose of 20mg/kg (oral administration)) amounted to 54%. Besides, the ED50 in assay [1] (parenteral administration) came to 1.07 mg/kg. In assay [2], the IC50 was 14.9 nM. In addition, in assay [3], the pA2 stood at 9.2.

The values are drawn from patent publication EP0399731B2, “Azaindenes” (AstraZeneca AB, priority 1989, dated 1990).
